Measurements published in paper PMC3933419, “Synthesis and Properties of a Selective Inhibitor of Homeodomain–Interacting Protein Kinase 2 (HIPK2)” (PLoS ONE, 2014).
Where two headings read alike, the source gives them in different places.

Columns and labels:
HIPK2 [1] = biological target: T1, HIPK2 (Homo sapiens, UniProt Q9H2X6); assay: HIPK2 kinase inhibition assay (33P-ATP, peptide […]); type: biochemical
T1 construct: The source of HIPK2 and of all of the other protein kinases used for specificity assays is as described elsewhere
T1 sequence (Q9H2X6 whole entry): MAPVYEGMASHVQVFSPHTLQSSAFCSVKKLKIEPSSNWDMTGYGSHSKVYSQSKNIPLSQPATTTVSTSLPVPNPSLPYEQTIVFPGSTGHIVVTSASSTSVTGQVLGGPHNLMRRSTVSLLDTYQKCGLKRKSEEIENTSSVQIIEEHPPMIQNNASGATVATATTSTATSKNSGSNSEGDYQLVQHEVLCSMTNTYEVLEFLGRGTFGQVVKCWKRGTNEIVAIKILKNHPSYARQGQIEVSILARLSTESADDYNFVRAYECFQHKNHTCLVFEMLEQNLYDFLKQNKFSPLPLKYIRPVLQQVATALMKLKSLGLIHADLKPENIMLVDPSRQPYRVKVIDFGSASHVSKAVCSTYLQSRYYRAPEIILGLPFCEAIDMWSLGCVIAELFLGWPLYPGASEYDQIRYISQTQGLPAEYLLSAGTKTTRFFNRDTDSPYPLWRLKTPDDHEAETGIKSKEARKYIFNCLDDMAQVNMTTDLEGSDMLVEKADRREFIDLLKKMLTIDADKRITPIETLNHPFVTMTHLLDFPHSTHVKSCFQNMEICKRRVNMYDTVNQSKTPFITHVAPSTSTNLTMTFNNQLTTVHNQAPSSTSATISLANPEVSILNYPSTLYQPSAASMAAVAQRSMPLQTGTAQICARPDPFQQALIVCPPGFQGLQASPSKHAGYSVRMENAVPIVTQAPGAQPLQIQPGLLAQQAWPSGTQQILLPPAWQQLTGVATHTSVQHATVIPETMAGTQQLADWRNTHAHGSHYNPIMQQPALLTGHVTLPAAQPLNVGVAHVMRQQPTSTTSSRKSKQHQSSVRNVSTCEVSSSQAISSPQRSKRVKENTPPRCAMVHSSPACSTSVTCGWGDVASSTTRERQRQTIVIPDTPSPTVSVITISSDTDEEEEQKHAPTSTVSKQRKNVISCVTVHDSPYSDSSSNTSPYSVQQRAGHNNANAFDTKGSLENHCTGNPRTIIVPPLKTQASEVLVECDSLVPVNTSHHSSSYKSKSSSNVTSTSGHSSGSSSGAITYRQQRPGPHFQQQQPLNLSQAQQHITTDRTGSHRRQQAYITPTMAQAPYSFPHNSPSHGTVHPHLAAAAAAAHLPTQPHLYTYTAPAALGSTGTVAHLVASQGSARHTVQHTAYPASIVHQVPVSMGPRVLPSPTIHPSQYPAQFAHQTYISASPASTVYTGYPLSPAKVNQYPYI
Method: The source of HIPK2 and of all of the other protein kinases used for specificity assays is as described elsewhere. […] The reaction was stopped by addition of 5 μl of 0.5 M orthophosphoric acid before spotting aliquots onto phosphocellulose filters. Filters were washed in 75 mM phosphoric acid (5-10 ml/each) four times and then once in methanol and dried before counting.

CK2 [2] = biological target: T2, CK2 (Rattus norvegicus, UniProt P19139); assay: CK2 phosphorylation assay; type: biochemical; conditions: 20 µM ATP
T2 construct: Native CK2 and CK1 were purified from rat liver; from tissue; host or cells: rat liver
T2 sequence (P19139 whole entry): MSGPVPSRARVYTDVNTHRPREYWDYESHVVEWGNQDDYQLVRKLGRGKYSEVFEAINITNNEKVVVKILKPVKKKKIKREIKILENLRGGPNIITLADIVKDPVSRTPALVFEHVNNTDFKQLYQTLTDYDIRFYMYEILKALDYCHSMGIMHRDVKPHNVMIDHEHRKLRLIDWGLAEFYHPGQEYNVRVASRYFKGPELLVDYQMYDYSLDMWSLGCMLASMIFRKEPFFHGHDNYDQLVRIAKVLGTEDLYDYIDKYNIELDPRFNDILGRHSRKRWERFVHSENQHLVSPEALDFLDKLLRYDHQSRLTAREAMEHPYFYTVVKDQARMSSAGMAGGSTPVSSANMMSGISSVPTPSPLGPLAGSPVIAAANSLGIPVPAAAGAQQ
T2 sequence (P67874 whole entry partner): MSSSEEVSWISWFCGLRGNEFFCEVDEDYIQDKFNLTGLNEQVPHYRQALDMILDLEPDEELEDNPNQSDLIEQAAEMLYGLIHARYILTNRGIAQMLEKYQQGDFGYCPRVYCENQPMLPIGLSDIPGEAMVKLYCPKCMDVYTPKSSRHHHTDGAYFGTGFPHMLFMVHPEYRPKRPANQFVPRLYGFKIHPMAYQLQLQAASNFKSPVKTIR
Method: (§1) Native CK2 and CK1 were purified from rat liver.
(§2) PIM1, CK2, CK1 phosphorylation assays were performed following similar procedures used for HIPK2 except that preincubation was omitted. In detail, PIM1 activity was determined at 100 µM ATP concentration and in the presence of 30 µM synthetic peptide substrate […]. CK2 and CK1 activities were assayed in a buffer containing 50 mM Tris/HCl (pH 7.5), 100 mM NaCl, 12 mM MgCl2, 100 µM specific peptide substrate […] (for CK2), or 200 µM […] (for CK1) and 20 µM [γ-^33P]ATP (500–1000 c.p.m./pmol).

PIM1 [3] = biological target: T3, PIM1 (Homo sapiens, UniProt P11309); assay: PIM1 phosphorylation assay; type: biochemical; conditions: 100 µM ATP
T3 construct: The source of HIPK2 and of all of the other protein kinases used for specificity assays is as described elsewhere
T3 sequence (P11309 whole entry, species assumed): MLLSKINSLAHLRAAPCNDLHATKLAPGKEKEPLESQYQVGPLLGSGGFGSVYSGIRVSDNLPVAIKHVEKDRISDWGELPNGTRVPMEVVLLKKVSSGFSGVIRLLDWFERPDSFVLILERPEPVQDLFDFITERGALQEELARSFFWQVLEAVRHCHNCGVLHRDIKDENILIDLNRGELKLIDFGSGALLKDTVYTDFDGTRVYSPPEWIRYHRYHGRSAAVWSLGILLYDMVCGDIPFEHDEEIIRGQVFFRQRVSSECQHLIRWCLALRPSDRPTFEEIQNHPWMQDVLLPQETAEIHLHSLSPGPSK
Method: as §2

CK1 [4] = assay: CK1 phosphorylation assay; type: biochemical, rat; conditions: 20 µM ATP
Method: as §1, §2

endogenous HIPK2 = biological target: T4, endogenous HIPK2 (Homo sapiens, UniProt Q9H2X6); assay: Activity of HIPK2 immunoprecipitated from treated HepG2 cells; type: cell-based; conditions: HepG2 cells, increasing concentrations; immunoprecipitated HIPK2
T4 construct: endogenous in cells; host or cells: HepG2
T4 sequence (Q9H2X6 whole entry): as the sequence (Q9H2X6 whole entry) above
Method: HepG2 cells (human hepatocellular carcinoma) were cultured in Dulbecco's modified Eagle's medium (DMEM; Sigma) supplemented with 10% fetal calf serum, 2 mM L-glutamine, 100 unit/ml penicillin and 100 µg/ml streptomycin; CEM cells (human T lymphoblastoid cells) were cultured n RPMI-1640 (Sigma) with the same supplements. Cells were cultured in an atmosphere containing 5% CO2, at 37°C. Treatments with TBID were performed in the same medium but with 1% fetal calf serum; control cells were treated with the solvent (DMSO). Total cell lysates were prepared as in [29].
Alternatively, HIPK2 was immunoprecipitated with 2.5 µl anti-HIPK2 (Epitomics) from 350 µg of total lysate proteins deriving from HepG2 cells either treated or not with TBID following a protocol elsewhere described. An aspecific antibody was used as negative control. Immunoprecipitated HIPK2 activity was measured towards the specific peptide substrate ([…]) at 1.6 mM concentration, for 10 min at 30°C, under the same conditions described above for the in vitro kinase assay. Peptide radioactivity was measured after sample spotting on phospho-cellulose paper, washing and scintillation counting, as in [30], while the amount of HIPK2 immunoprecipitated was evaluated by WB.

HIPK2 [5] = biological target: T1, HIPK2; set-up: method as in PMID 17850214; conditions: 1 µM concentration; panel of 71 protein kinases; ref [9]; cited from earlier work
[6] = system: panel of 71 protein kinases; conditions: 1 µM concentration, ref [9]; cited from earlier work
HIPK2 [7] = biological target: T1, HIPK2; set-up: method as in PMID 18588507; conditions: TBB and TBI values; ref [19]; cited from earlier work
PIM1 [8] = biological target: T3, PIM1; set-up: method as in PMID 18588507; conditions: TBB and TBI values; ref [19]; cited from earlier work
CK1 [9] = system: CK1; set-up: method as in PMID 18588507; conditions: TBB and TBI values; ref [19]; cited from earlier work
70 PKs [10] = assay: Selectivity parameters (Lorenz curve, Gini coefficient, hit rate) of TBI; type: biochemical; conditions: 10 µM, from data published in ref [19]
Method: Lorenz curves were derived from the selectivity data. Gini coefficients and hit rates (expressing the percent of kinases inhibited >50% by a given compound) were calculated as described in [25].

CK2 [11] = biological target: T2, CK2; set-up: method as in PMID 18588507; conditions: read-out: IC50 for CK2; TBB and TBI values; ref [19]; cited from earlier work
70 PKs [12] = system: 70 PKs; set-up: method as in PMID 21513497; conditions: 10 µM TBI; ref [20]; cited from earlier work

Structure (SMILES) | IC50 (HIPK2 [1]; 20 µM ATP, in vitro) [µM] | IC50 (CK2 [2]) [µM] | IC50 (PIM1 [3]) [µM] | IC50 (CK1 [4]) [µM] | melting point | also measured
O=C1c2c(Br)c(Br)c(Br)c(Br)c2C(=O)N1c1nccs1 [5b, 4,5,6,7-Tetrabromo-2-(thiazol-2-yl)isoindoline-1,3-dione] | 0.72 | 16 | 40 | 9.3 | 228 to 232 °C | 
O=C1c2c(Br)c(Br)c(Br)c(Br)c2C(=O)N1c1nncs1 [5c, 4,5,6,7-Tetrabromo-2-(1,3,4-thiadiazol-2-yl)isoindoline-1,3-dione] | 2.6 | 24 | > 40 | > 40 | 310 to 311 °C | 
O=C1c2c(Br)c(Br)c(Br)c(Br)c2C(=O)N1c1ncns1 [5d, 4,5,6,7-Tetrabromo-2-(1,2,4-thiadiazol-5-yl)isoindoline-1,3-dione] | 2.5 | 35 | > 40 | > 40 | 325 to 326 °C | 
O=C1c2c(Br)c(Br)c(Br)c(Br)c2C(=O)N1c1ccn[nH]1 [5e, 4,5,6,7-Tetrabromo-2-(1H-pyrazol-5-yl)isoindoline-1,3-dione] | > 40 | 23 | > 40 | > 40 | 333 to 334 °C (dec.) | endogenous HIPK2 activity upon cell treatment (endogenous HIPK2): not
Cc1cc(N2C(=O)c3c(Br)c(Br)c(Br)c(Br)c3C2=O)[nH]n1 [5f, 4,5,6,7-Tetrabromo-2-(3-methyl-1H-pyrazol-5-yl)isoindoline-1,3-dione] | > 40 | > 40 | > 40 | > 40 | 331 to 332 °C | 
O=C1c2c(Br)c(Br)c(Br)c(Br)c2C(=O)N1c1ncn[nH]1 [5g, 4,5,6,7-Tetrabromo-2-(1H-1,2,4-triazol-5-yl)isoindoline-1,3-dione] | 22.7 | 25 | > 40 | > 40 | > 360 °C | 
O=C1c2c(Br)c(Br)c(Br)c(Br)c2C(=O)N1c1ccon1 [5h, 4,5,6,7-Tetrabromo-2-(isoxazol-3-yl)isoindoline-1,3-dione] | 23.6 | > 40 | > 40 | > 40 | 290 to 293 °C | 
O=C1c2c(Br)c(Br)c(Br)c(Br)c2C(=O)N1c1cnccn1 [5i, 4,5,6,7-Tetrabromo-2-(pyrazin-2-yl)isoindoline-1,3-dione] | 3.62 | > 40 | > 40 | > 40 | 272 to 275 °C | 
C[S+]([O-])c1ccc(-c2nc(-c3ccncc3)c(-c3ccc(F)cc3)[nH]2)cc1 (stereo not drawn) [SB203580] |  |  |  |  |  | effect on HIPK2 activity (HIPK2 [1]; up to 40 µM concentration): not appreciably affecting; inhibition of HIPK2 (HIPK2 [5]): 14%; number of protein kinases inhibited >60% [6]: 6
Brc1c(Br)c(Br)c2[nH]nnc2c1Br [TBB, 4,5,6,7-tetrabromobenzotriazole] |  |  |  |  |  | IC50 (HIPK2 [7]): 5.3 µM; IC50 (PIM1 [8]): 1.04 µM; IC50 (CK1 [9]): > 40 µM
Brc1c(Br)c(Br)c2[nH]cnc2c1Br [TBI] |  |  |  |  |  | IC50 (HIPK2 [1]; TBI value given in the text): 1 µM; Gini coefficient (70 PKs [10]): 0.310; IC50 (HIPK2 [7]): 0.7 µM; IC50 (CK2 [11]): 0.6 µM; IC50 (PIM1 [8]): 0.115 µM; IC50 (CK1 [9]): 15 µM; number of kinases inhibited >90% (70 PKs [12]): 10
